Experiments:
rats = assay: Prepulse inhibition of acoustic startle, phencyclidine-induced sensorimotor gating deficit; assay type: in vivo, rat; settings: for inhibition of startle response when preceded by pre-pulse (sensorimotor gating): rats pretreated 60 min, PCP 1.25 mg/kg SC, FIG. 7
Description: Sensorimotor gating, a process compromised in schizophrenic patients, is often measured using prepulse inhibition whereby a mild auditory stimulus (prepulse, 2-15 db above background) precedes (100 ms) a startle-eliciting auditory stimulus (50 dB above background). Intact sensorimotor gating will result in suppression of the startle reflex when preceded by the prepulse. Since improvement in prepulse inhibition tracks improvement in symptoms that are largely insensitive to current treatments, this paradigm has become one of the most commonly used screening paradigms. FIG. 5 illustrates the capacity of PCP to disrupt prepulse inhibition, rendering the prepulse ineffective in suppressing the startle reflex. PCP is commonly used to disrupt prepulse inhibition because this abnormality, in addition to negative and cognitive symptoms, are insensitive to 1st generation antipsychotics thereby providing predictive validity.
FIG. 7 is a bar graph illustrating inhibition of a startle response in response to a load stimulus (pulse) when preceded by a pre-pulse stimulus (2-15 db above background). Prepulse inhibition is a commonly used paradigm to screen antipsychotic agents for use in treating schizophrenia. The pre-pulse stimulus presented at 15 dB above background reduced the startle response in saline controls (Sal; N=54) by >60% relative to the response elicited following exposure to the pulse only. […] This reflects sensorimotor gating deficits common to patients afflicted with schizophrenia.
In an exemplary experiment, rats are placed on a platform in a sound attenuating chamber (10.875″×14″×19.5″, Hamilton Kinder, CA) that rests on a motion sensing plate. During all sessions, background noise is held constant at 60 dB. A matching session is conducted to determine the magnitude of the average startle response for each rat. This session consists of a five minute habituation period followed by twenty trials.
Seventeen of these trials involve the presentation of a single auditory stimulus (pulse stimulus; 50 dB above the background noise), and in three of these trials, a pre-pulse stimulus (12 dB above background) is presented 100 ms before the pulse auditory stimulus.
Rats are then assigned to various treatment groups so that the magnitude of the startle response is equivalent across all groups. Two days later, a testing session is conducted to assess sensorimotor gating.
The testing session consists of a five minute habituation period, after which rats received 58 discrete trials: 26 trials during which the pulse stimulus (50 dB above background) was presented alone, eight trials each in which the pulse stimulus was preceded by a pre-pulse stimulus (5, 10, or 15 dB above background), and eight background trials with no pulse (no stimulus; background noise only).
The first six pulse alone trials are not included in the average startle stimulus, to achieve a relatively stable level of startle reactivity. The percent of pre-pulse inhibition is determined as 100−(average pre-pulse startle response/average startle stimulus alone)*100.

[1] = in vivo; cited from earlier work
human subjects = settings: cited from earlier work
[2] = clinical trials; cited from earlier work
cocaine abusers = cocaine abusers receiving NAC; cited from earlier work
rodents = settings: cited from earlier work
[3] = N=8/group, versus PCP alone and/or N-acetylcysteine 30 mg/kg, Fisher LSD p<0.05

## CC(C)c1noc([C@@H](N)CSSC[C@H](N)c2nc(C(C)C)no2)n1 [Compound 25, (1R,1′R)-2,2′-Disulfanediylbis(1-(3-isopropyl-1,2,4-oxadiazol-5-yl)ethanamine)]
rats; [3]
  inhibition of startle response when preceded by pre-pulse (sensorimotor gating): significant difference

## c1ccc(C2(N3CCCCC3)CCCCC2)cc1 [phencyclidine]
rats; rats, phencyclidine only 1.25 mg/kg SC, N=50, regardless of pre-pulse intensity
  reduction in the startle response elicited by the pulse when preceded by the pre-pulse: failed to exhibit a reduction in the response elicited by the pulse

## tert-Butyl (1R,1′R)-2,2′-disulfanediylbis(1-(3-isopropyl-1,2,4-oxadiazol-5-yl)ethane-2,1-diyl)dicarbamate [Compound 22]
rats; [3]
  inhibition of startle response when preceded by pre-pulse (sensorimotor gating): significant difference

## CC(=O)N[C@@H](CS)C(=O)O [N-acetyl cysteine, N-acetylcysteine]
[1]
  first-pass metabolism: extensive first-pass metabolism
  passive transport across the blood-brain barrier: limited passive transport
Human subjects
  safety/tolerability profile: favorable safety/tolerability profile
[2]
  antipsychotic efficacy: clinical trials establishing the antipsychotic efficacy
Cocaine abusers
  cocaine use and craving: reduction in cocaine use and craving
rodents
  blocking compulsive drug-seeking: effective in blocking compulsive drug-seeking
rats; direct delivery into the brain (prefrontal cortex), FIG. 6
  phencyclidine-induced deficits in sensorimotor gating: reverses phencyclidine-induced deficits in sensorimotor gating
rats; 30 mg/kg po
  inhibition of startle response when preceded by pre-pulse (sensorimotor gating): failed to exhibit sensorimotor gating

## Cc1noc(C(CSSCC(NC(=O)OC(C)(C)C)c2nc(C)no2)NC(=O)OC(C)(C)C)n1 [Compound 23, tert-Butyl (1R,1′R)-2,2′-disulfanediylbis(1-(3-methyl-1,2,4-oxadiazol-5-yl)ethane-2,1-diyl)dicarbamate]
rats; [3]
  inhibition of startle response when preceded by pre-pulse (sensorimotor gating): significant difference

Reference: patent publication US9133141B2, “Cysteine and cystine bioisosteres to treat schizophrenia and reduce drug cravings” (Marquette University, priority 2008, dated 2015)
